# Measured values published in patent US3949075A, “Anti-microbial compounds of 2', 4' substituted anilides of substituted nitrosalicylic acid for quadruped animals” (Ferro Corporation, priority 1974, dated 1976).
# Like-named read-outs stand apart in the source and are kept apart here.
# How the values were obtained:
# Fasciola hepatica = test: Test for activity against liver flukes, Fasciola hepatica, in infected sheep; type: in vivo; details: for inhibition in vivo at 1 mg/kg: Tables VIII and X
# Description: (§1) Test for activity against liver flukes were conducted as follows:
# (§2) Eggs of Fasciola hepatica were collected from the bile of donor sheep. The eggs were embryonated and snails were infected (the genus Lymnaea serves as intermediate host) to produce Metacercariae which are the infective forms for sheep. Each sheep was infected with 250 metacercariae intraruminally. When the infection became patent in ca. 80 days, egg counts were carried out to determine the degree of worm burden. The liver was processed to recover F. hepatica in the untreated and treated sheep.
# (§3) The data of the tables were generated using procedures previously described. The compounds tested are disubstituted and, except for Example 50 which is dibromo, are dichloro. Where the position for the substituents is other than 2' and 4', it is indicated. Under the indicated microorganisms, the values given in this and the following tables, should be read as: percentage of microorganism killed/dose in milligrams per kilogram of body weight. Under "Tolerance", the term "Tol." means "tolerated", "Tox." means "toxic", and "Sym." means "symptoms of toxic reaction", all at the dosage value which follows. It will be appreciated that there is no sharp toxicity end point in determining toxicity to living sheep.
# [1] = tested on: Haemonchus and Fasciola hepatica; test: Dual activity against Haemonchus and Fasciola in sheep and therapeutic ratio; type: in vivo; details: sheep; for overall activity ranking, in words: Table X
# Haemonchus contortus = test: Percent of Haemonchus destroyed or expelled in infected sheep (egg count after treatment); type: in vivo, Haemonchus contortus (in sheep); details: for Haemonchus (2 mg/kg), percent of parasites destroyed or expelled / Haemonchus (5 mg/kg), percent of parasites destroyed or expelled / Haemonchus (15 mg/kg), percent of parasites destroyed or expelled: into rumen, Table 1
# Description: Two groups of sheep were used in the tests. One group was used as a non-medicated control, while the other group was treated with the compound under investigation. Helminth-free young lambs were infected with about 10,000 filariform larvae of Haemonchus contortus. In three weeks when the infection became apparent, egg counts were made to determine the density of the worm burden.
# The egg count was carried out using the following modified Stoll method. Three grams of sheep feces were taken rectally from each animal and placed in a Stoll flask. To each flask, tap water was added to the top line. The fecal pellets were too hard to break down, the flasks were closed with rubber stoppers and kept in the refrigerator for several hours. The flasks were thoroughly shaken and a 1 ml. sample was drawn from the middle using a wide mouth pipette. This 1 ml. sample was transferred to an 8 ml. plastic tube, to which enough saturated sodium chloride solution was added to reach the rim. The tubes were then centrifuged for 10 minutes at 1500 r.p.m. Then sodium chloride solution was added with a medicine dropper forming a concave miniscus. A cover glass was carefully added and the tubes were kept in a refrigerator for ten to twenty minutes. During that period, the nematode ova flowed upward and adhered to the bottom of the cover glass slip. At the end of the 20-minute period, the cover slip was carefully detached from the miniscus and transferred to a microscopic slide. The ova were then counted under a microscope equipped with 10X ocular and 10X objective lens. Each ovum under the microscope represented 20 ova in the sample.
# Animals with sufficiently high egg counts were taken out of the pool and housed in experimental pens. Since the salicylanilides of the present invention are water insoluble, the compounds were first ground using a mortar and pestle and then were placed in a carboxymethyl cellulose solution. The particles were further micronized ultrasonically. The compound was then administered to two or three animals by Oesophageal gavage. Control, untreated animals, received only the carboxymethyl cellulose solution in a similar manner. On the sixth and seventh day after treatment, fecal pellets were taken from the rectum of the control as well as the treated animals and egg counts were made.
# (§4) The results of tests on sheep in a manner described, supra, using compounds of the present invention are given in Table 1, Examples 5 through 13. The numbers in the column headed "Haemonchus (15 mg/kg)" refer to the percent of parasites destroyed or expelled when the indicated compound was introduced into the rumen of sheep at a dosage of 15 milligrams per kilogram of body weight. The values under "Tolerance (mg/kg)" refer to the highest test dosage in the milligrams of anthelmintic per kilogram of body weight at which the sheep developed no toxic symptoms. "Tol." is an abbreviation for "tolerated". The symbols R1 and R2 refer to those of Formula I in these and other following examples.
# as §3
# sheep = test: Tolerance / toxicity in sheep; type: in vivo; parameters: key to Tolerance at 100 mg/kg / Tolerance at 50 mg/kg: "toxic" refers to death of sheep resulting from the use of the indicated compound at the indicated dosage; key to Tolerance: Tol.: tolerated; Tox.: toxic; Sym.: symptoms of toxic reaction
# Description: as §4
# (§5) The importance of the 2',4' substitution on the anilide moiety of Formula I is illustrated by the case of the dichloro substitution as summarized in Table III. […] This has been mentioned briefly hereinabove. As used herein, "toxic" refers to death of sheep resulting from the use of the indicated compound at the indicated dosage.
# as §3
# [2] = Tolerance / toxicity in sheep; type: in vivo; parameters: key to Tolerance at 100 mg/kg / Tolerance at 50 mg/kg: "toxic" refers to death of sheep resulting from the use of the indicated compound at the indicated dosage; key to Tolerance: Tol.: tolerated; Tox.: toxic; Sym.: symptoms of toxic reaction; details: in vivo, Table 1, read-out: Tolerance, highest test dosage at which the sheep developed no toxic symptoms
# Description: as §4, §5, §3
# [3] = tested on: liver flukes of the genus Fasciola; test: Utility against liver flukes of the genus Fasciola in sheep (oral); type: in vivo; details: for effect against liver flukes: 15 mg/kg
# Description: as §1, §2
# The compounds of this invention also have utility against liver flukes.
# [4] = Fasciola hepatica, sheep, read-out: Fasciola hepatica, percentage of microorganism killed
# [5] = Fasciola hepatica, sheep, Tables VIII-XI, read-out: Fasciola hepatica, percentage of microorganism killed
# [6] = Haemonchus contortus, sheep, Tables VIII-XI, read-out: Haemonchus, percentage of microorganism killed
# [7] = Haemonchus contortus, sheep, 5 mg/kg, Tables VIII-XI, read-out: Haemonchus, percentage of microorganism killed
# [8] = Haemonchus contortus, iv, sheep, 15 mg/kg, Tables III and IV, read-out: Effectiveness (%) at 15 mg/kg
# [9] = Haemonchus contortus, sheep, 15 mg/kg, Tables VIII-XI, read-out: Haemonchus, percentage of microorganism killed
Compound,inhibition in vivo at 1 mg/kg (Fasciola hepatica; [4]),inhibition in vivo at 2 mg/kg (Fasciola hepatica; [5]),"overall activity ranking, in words [1]",inhibition in vivo at 2 mg/kg (Haemonchus contortus; [6]),inhibition in vivo at 5 mg/kg (Haemonchus contortus; [7]),"Haemonchus (2 mg/kg), percent of parasites destroyed or expelled (Haemonchus contortus; sheep)","Haemonchus (5 mg/kg), percent of parasites destroyed or expelled (Haemonchus contortus; sheep, 5 mg/kg)",NOAEL [2],inhibition in vivo at 15 mg/kg (Haemonchus contortus; [8]),"Haemonchus (15 mg/kg), percent of parasites destroyed or expelled (Haemonchus contortus; sheep, 15 mg/kg)","Tolerance (sheep; 50 mg./kg., Tables VIII-X)",Tolerance at 50 mg/kg (sheep; Tables III and IV),inhibition in vivo at 15 mg/kg (Fasciola hepatica; [5]),inhibition in vivo at 15 mg/kg (Haemonchus contortus; [9]),effect against liver flukes [3],also measured
Cc1c([N+](=O)[O-])cc(C(C)(C)C)c(O)c1C(=O)Nc1ccc(Br)cc1C(F)(F)F [Example 11],100%,100%,most active compounds of the invention,99.8%,100%,99.8%,100%,≥ 20 mg/kg,,,,,,,,"inhibition in vivo at 0.5 mg/kg (Fasciola hepatica; Fasciola hepatica, sheep, 0.5 mg/kg, Table X, read-out: Fasciola hepatica, percentage of microorganism killed): 97%; inhibition in vivo at 5 mg/kg (Fasciola hepatica; Fasciola hepatica, sheep, 5 mg/kg, Tables VIII-XI, read-out: Fasciola hepatica, percentage of microorganism killed): 100%; Tolerance (sheep; 20 mg./kg., Table X): Tol.; Tolerance (sheep; 35 mg./kg., Table X): Tol.; Tolerance, highest test dosage at which the sheep developed no toxic symptoms (sheep; Table 1, listed as 12): ≥ 35 mg/kg"
"Cc1c([N+](=O)[O-])cc(C(C)(C)C)c(O)c1C(=O)Nc1ccc(Cl)cc1Cl [Example 5, 3-tert. butyl-2', 4'-dichloro-6-methyl-5-nitrosalicylanilide]",44%,99%,,14%,100%,14%,,50 to 100 mg/kg,100%,100%,Tol.,nontoxic,,,,"inhibition in vivo at 5 mg/kg (Fasciola hepatica; Fasciola hepatica, read-out: Fasciola hepatica, percentage of microorganism killed): 100%; dose ratio: times less than the dose at which the 2',5' dichloro compound had no activity (Fasciola) (Fasciola hepatica; sheep): 2.5 times; effective against Fasciola (Fasciola hepatica; sheep, dose 2.5 times less than that at which the 2',5' dichloro compound had no activity): 99%; dual activity against both Haemonchus and Fasciola ([1]; 5 mg./kg.): 100%; inhibition in vivo at 15 mg/kg (Haemonchus contortus; Haemonchus contortus, read-out: Haemonchus, percentage of microorganism killed, sheep, 15 mg/kg, Tables VIII-XI): 100%; activity at 5 mg./kg. (Haemonchus contortus; sheep, 5 mg/kg): 100%; Effectiveness (%) at 5 mg/kg (Haemonchus contortus; sheep, 5 mg/kg, Tables III and IV): 100%; Effectiveness at 15 mg/kg against Haemonchus (Haemonchus contortus; sheep, 15 mg/kg, Table VI): 100%; effective in killing or expelling Haemonchus (Haemonchus contortus; sheep, dose not given): 100%; Tolerance (sheep; 100 mg./kg., Tables VIII, IX): Sym.; Tolerance at 100 mg/kg (sheep; 100 mg/kg, Tables III and IV): toxic; effect against (mature) liver flukes ([3]; oral, 5 mg/kg, within three days): completely destroyed all flukes"
"Cc1c([N+](=O)[O-])cc(C(C)(C)C)c(O)c1C(=O)Nc1ccc(C(F)(F)F)cc1 [Example 10, 3-tert. butyl-6-methyl-5-nitro-4'-trifluoromethylsalicylanilide]",,,,,,,,15 to 50 mg/kg,,100%,,,100%,100%,efficacious,"inhibition in vivo at 15 mg/kg (Haemonchus contortus; Haemonchus contortus, sheep, 15 mg/kg, Table V, read-out: Effectiveness at 15 mg/kg against Haemonchus): 100%"
Cc1c([N+](=O)[O-])cc(C(C)(C)C)c(O)c1C(=O)Nc1ccc(Cl)cc1C(F)(F)F [Example 13],100%,100%,most active compounds of the invention,96%,91%,96%,91%,≥ 15 mg/kg,,100%,Tox.,,,100%,,"inhibition in vivo at 1 mg/kg (Haemonchus contortus; Haemonchus contortus, sheep, 1 mg/kg, Table X, read-out: Haemonchus, percentage of microorganism killed): 76%; Tolerance (sheep; 15 mg./kg., Tables VIII, X): Tol.; Tolerance (sheep; 25 mg./kg., Tables IX, X): Tox."
"Cc1c(Cl)cccc1NC(=O)c1c(C)c([N+](=O)[O-])cc(C(C)(C)C)c1O [Example 28, 3-tert. butyl-3'-chloro 2', 6-dimethyl-5-nitrosalicylanilide]",,,,,,,,,87%,,Tox.,toxic,0%,87%,ineffective against liver flukes,
